Common to all, as to type: cell-based
One assay has as its target T1, human TLR8 (Homo sapiens, UniProt Q9NR97).
T1 construct: host or cells: HEK-Blue cells
T1 sequence (Q9NR97 27-1041): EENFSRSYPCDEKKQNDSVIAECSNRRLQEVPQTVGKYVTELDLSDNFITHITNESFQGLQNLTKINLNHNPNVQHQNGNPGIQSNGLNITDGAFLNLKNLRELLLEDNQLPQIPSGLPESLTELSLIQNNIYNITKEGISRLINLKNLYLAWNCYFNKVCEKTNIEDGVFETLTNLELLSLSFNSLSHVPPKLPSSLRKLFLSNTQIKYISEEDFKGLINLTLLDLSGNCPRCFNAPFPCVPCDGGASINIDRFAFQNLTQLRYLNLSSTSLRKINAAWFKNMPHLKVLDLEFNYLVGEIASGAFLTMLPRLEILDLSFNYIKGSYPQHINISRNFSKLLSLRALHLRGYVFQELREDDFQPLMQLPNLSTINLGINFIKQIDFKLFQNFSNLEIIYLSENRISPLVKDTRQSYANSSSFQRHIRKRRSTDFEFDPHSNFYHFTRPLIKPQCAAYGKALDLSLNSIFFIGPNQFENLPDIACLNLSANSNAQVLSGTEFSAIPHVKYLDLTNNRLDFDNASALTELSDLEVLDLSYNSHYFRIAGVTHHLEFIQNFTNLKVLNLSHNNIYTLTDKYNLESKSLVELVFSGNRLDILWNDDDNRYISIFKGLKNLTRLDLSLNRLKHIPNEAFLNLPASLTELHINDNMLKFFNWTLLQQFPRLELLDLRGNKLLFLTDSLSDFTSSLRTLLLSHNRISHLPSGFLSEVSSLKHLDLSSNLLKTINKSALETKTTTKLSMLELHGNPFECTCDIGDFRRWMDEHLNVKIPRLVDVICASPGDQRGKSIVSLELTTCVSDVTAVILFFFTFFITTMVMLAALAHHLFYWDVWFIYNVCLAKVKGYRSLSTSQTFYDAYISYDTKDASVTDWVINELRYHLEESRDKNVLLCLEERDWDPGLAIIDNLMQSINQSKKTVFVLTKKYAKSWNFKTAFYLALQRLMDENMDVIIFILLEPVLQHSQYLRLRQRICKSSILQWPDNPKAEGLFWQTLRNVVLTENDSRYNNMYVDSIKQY
Kind of assay: TLR8 inhibition reporter assay (HEK-Blue SEAP). The following applies: HEK-Blue cells overexpressing human TLR8, stimulated with R848 15.9 μM, 22 hour incubation. The essentials:
(§1)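 Percent inhibition reflects SEAP reduction after 22 h at 37° C, relative to agonist-plus-DMSO and known-inhibitor controls. Compounds (0.05 nM to 50 μM) were added 30 min before agonist: TLR9 cells received ODN2006 5 nM, TLR8 cells R848 15.9 μM, TLR7 cells gardiquimod 7.5 μM; human receptor-expressing HEK-Blue reporter lines.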
(In general: Reporter assays use an easily measured gene product as a stand-in for the process of interest.)

The target in a further assay is T2, human TLR7 (Homo sapiens, UniProt Q9NYK1).
T2 construct: host or cells: HEK-Blue cells
T2 sequence (Q9NYK1 27-1049): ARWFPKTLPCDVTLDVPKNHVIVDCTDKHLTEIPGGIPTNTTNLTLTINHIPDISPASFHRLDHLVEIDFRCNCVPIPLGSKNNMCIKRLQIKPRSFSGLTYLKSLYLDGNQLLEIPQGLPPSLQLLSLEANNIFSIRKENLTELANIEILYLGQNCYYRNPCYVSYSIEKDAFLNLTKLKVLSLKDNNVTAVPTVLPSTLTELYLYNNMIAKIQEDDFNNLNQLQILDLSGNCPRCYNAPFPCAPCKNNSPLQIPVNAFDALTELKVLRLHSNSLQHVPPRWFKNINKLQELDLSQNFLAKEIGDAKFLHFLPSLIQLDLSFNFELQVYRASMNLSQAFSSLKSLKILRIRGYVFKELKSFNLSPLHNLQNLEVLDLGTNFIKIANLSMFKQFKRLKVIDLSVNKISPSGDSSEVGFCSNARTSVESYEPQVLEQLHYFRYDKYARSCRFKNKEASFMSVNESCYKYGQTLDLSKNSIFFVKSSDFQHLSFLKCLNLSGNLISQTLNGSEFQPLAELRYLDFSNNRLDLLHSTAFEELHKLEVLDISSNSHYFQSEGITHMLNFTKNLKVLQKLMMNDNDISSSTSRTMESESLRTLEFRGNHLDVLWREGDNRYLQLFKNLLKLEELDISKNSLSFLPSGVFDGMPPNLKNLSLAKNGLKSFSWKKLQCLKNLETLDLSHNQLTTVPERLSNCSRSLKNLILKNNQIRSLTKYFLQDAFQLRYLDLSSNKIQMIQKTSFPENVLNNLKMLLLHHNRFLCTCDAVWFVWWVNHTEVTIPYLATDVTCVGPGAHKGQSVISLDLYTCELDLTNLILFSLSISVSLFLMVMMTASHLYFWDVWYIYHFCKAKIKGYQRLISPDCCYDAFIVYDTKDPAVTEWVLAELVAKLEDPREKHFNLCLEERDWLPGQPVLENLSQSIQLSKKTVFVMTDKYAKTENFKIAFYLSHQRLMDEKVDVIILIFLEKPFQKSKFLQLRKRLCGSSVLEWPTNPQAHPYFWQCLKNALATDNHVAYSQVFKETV
The assay is described as follows: TLR7 inhibition reporter assay (HEK-Blue SEAP). Particulars: HEK-Blue cells overexpressing human TLR7, stimulated with gardiquimod 7.5 μM, 22 hour incubation. The essentials: as §1

In the next assay the target is T3, human TLR9 (Homo sapiens, UniProt Q9NR96).
T3 construct: host or cells: HEK-Blue cells
T3 sequence (Q9NR96 26-1032): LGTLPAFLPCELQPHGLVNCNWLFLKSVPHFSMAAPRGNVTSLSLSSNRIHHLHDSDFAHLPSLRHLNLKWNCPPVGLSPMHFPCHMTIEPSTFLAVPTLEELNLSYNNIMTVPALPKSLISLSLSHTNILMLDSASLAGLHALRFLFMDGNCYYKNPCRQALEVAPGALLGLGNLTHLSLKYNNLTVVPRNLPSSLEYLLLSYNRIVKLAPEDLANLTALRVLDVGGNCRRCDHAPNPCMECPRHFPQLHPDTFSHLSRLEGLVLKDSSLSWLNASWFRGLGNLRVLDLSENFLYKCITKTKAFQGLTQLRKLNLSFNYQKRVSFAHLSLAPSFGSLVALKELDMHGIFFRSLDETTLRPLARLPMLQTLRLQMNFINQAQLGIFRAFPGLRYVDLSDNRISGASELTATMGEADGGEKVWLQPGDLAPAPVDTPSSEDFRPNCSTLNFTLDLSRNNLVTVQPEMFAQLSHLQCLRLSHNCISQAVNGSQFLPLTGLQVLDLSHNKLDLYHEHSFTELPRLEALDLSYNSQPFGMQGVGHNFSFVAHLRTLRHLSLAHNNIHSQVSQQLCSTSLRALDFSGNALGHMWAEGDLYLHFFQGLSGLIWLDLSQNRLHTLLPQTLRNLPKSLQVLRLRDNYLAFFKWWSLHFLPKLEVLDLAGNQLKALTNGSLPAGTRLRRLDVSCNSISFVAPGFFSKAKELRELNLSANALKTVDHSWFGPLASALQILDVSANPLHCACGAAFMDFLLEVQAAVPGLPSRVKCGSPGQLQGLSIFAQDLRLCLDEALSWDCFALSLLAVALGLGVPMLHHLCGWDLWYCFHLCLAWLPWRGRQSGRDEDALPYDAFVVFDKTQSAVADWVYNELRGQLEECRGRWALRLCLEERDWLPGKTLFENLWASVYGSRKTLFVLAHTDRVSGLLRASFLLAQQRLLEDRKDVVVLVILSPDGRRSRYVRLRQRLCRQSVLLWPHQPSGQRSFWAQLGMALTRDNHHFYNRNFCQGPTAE
The assay is described as follows: TLR9 inhibition reporter assay (HEK-Blue SEAP). Particulars: HEK-Blue cells overexpressing human TLR9, stimulated with ODN2006 5 nM, 22 hour incubation. The essentials: as §1

pIC50: −log10 of the molar value.

As to `CCc1cc2c(C3CCN(CC(=O)N(C)C)CC3)n[nH]c2cc1-c1cc(C)c2ncnn2c1` [Example 91, 2-(4-(5-ethyl-6-(8-methyl-[1,2,4]triazolo[1,5-a]pyridin-6-yl)-1H-indazol-3-yl)piperidin-1-yl)-N,N-dimethylacetamide], the pIC50 (in general, −log10 of the IC50, conventionally taken in molar units) against human TLR8 was 9.40; on human TLR7 it was 8.43; against human TLR9 it was 4.84.
On to `CCc1cc2c(C3CCN(CC(N)=O)CC3)n[nH]c2cc1-c1cc(C)c2ncnn2c1` [Example 92, 2-(4-(5-ethyl-6-(8-methyl-[1,2,4]triazolo[1,5-a]pyridin-6-yl)-1H-indazol-3-yl)piperidin-1-yl)acetamide], for which the pIC50 at human TLR8 is 9.70; against human TLR7, 8.57; against human TLR9, 4.77.
As for `CCc1cc2c(C3CCC(NCC(=O)N(C)C)CC3)n[nH]c2cc1-c1cc(C)c2ncnn2c1` (stereo not drawn) [Example 95, 2-((4-(5-ethyl-6-(8-methyl-[1,2,4]triazolo[1,5-a]pyridin-6-yl)-1H-indazol-3-yl)cyclohexyl)amino)-N,N-dimethylacetamide], the pIC50 against human TLR8 was 9.70; against human TLR7 it was 8.27; at human TLR9, 4.96.
With `CCc1cc2c(C3CCC(NCC(=O)N(C)C)CC3)n[nH]c2cc1-c1cc(C)c2ncnn2c1` (stereo not drawn) [Example 96, 2-((4-(5-ethyl-6-(8-methyl-[1,2,4]triazolo[1,5-a]pyridin-6-yl)-1H-indazol-3-yl)cyclohexyl)amino)-N,N-dimethylacetamide], the results for the pIC50 at human TLR8, against human TLR7 and against human TLR9 were 9.70, 8.52 and 4.80, respectively.
Take `CCc1cc2c(C3CCN(CC(C)(C)O)CC3)n[nH]c2cc1-c1cc(C)c2ncnn2c1` [Example 101, 1-(4-(5-ethyl-6-(8-methyl-[1,2,4]triazolo[1,5-a]pyridin-6-yl)-1H-indazol-3-yl)piperidin-1-yl)-2-methylpropan-2-ol]: the pIC50 is 9.70 on human TLR8, 8.25 at human TLR7 and 4.92 at human TLR9.
On to `Cc1cc(-c2cc3[nH]nc(C4CCNCC4)c3cc2C(C)C)cn2ncnc12` [Example 102, 6-(5-isopropyl-3-(piperidin-4-yl)-1H-indazol-6-yl)-8-methyl-[1,2,4]triazolo[1,5-a]pyridine], for which the results for the pIC50 at human TLR8, against human TLR7 and against human TLR9 were 9.40, 9.00 and 4.96, respectively.
Turning to `CCc1cc2c(C3CCN(C(=O)CCN(C)C)CC3)n[nH]c2cc1-c1cc(C)c2ncnn2c1` [Example 103, 3-(dimethylamino)-1-(4-(5-ethyl-6-(8-methyl-[1,2,4]triazolo[1,5-a]pyridin-6-yl)-1H-indazol-3-yl)piperidin-1-yl)propan-1-one], the pIC50 is 9.05 against human TLR8, 7.96 against human TLR7 and 4.91 on human TLR9.
For the compound `CCc1cc2c(C3CCN(CC#N)CC3)n[nH]c2cc1-c1cc(C)c2ncnn2c1` [Example 104, 2-(4-(5-ethyl-6-(8-methyl-[1,2,4]triazolo[1,5-a]pyridin-6-yl)-1H-indazol-3-yl)piperidin-1-yl)acetonitrile], the pIC50 is 9.10 on human TLR8, 8.16 at human TLR7 and 4.87 on human TLR9.
With `CCc1cc2c(C3CCN(Cc4cn(C)nn4)CC3)n[nH]c2cc1-c1cc(C)c2ncnn2c1` [Example 105, 6-(5-ethyl-3-(1-((1-methyl-1H-1,2,3-triazol-4-yl)methyl)piperidin-4-yl)-1H-indazol-6-yl)-8-methyl-[1,2,4] triazolo[1,5-a]pyridine], the pIC50 against human TLR8 is 10.00; at human TLR7, 8.29; against human TLR9 it was 5.06.
Turning to `CCc1cc2c(C3CCN(CCC#N)CC3)n[nH]c2cc1-c1cc(C)c2ncnn2c1` [Example 106, 3-(4-(5-ethyl-6-(8-methyl-[1,2,4]triazolo[1,5-a]pyridin-6-yl)-1H-indazol-3-yl)piperidin-1-yl)propanenitrile], the results for the pIC50 against human TLR8, against human TLR7 and at human TLR9 were 9.70, 8.14 and 4.40, respectively.
For `CCc1cc2c(C3CCN(C(=O)CCCN(C)C)CC3)n[nH]c2cc1-c1cc(C)c2ncnn2c1` [Example 107, 4-(dimethylamino)-1-(4-(5-ethyl-6-(8-methyl-[1,2,4]triazolo[1,5-a]pyridin-6-yl)-1H-indazol-3-yl)piperidin-1-yl)butan-1-one], in that order: 8.77, 7.99 and 4.78.
As to `CCc1cc2c(C3CCN(CCC(F)(F)F)CC3)n[nH]c2cc1-c1cc(C)c2ncnn2c1` [Example 108, 6-(5-ethyl-3-(1-(3,3,3-trifluoropropyl)piperidin-4-yl)-1H-indazol-6-yl)-8-methyl-[1,2,4] triazolo[1,5-a]pyridine], the pIC50 was 9.70 against human TLR8, 8.25 against human TLR7 and 4.63 against human TLR9.
Regarding `CCc1cc(-c2cc(C)c3ncnn3c2)cc2[nH]nc(C3CCNCC3)c12` [Example 109, 6-(4-ethyl-3-(piperidin-4-yl)-1H-indazol-6-yl)-8-methyl-[1,2,4]triazolo[1,5-a]pyridine], the values for the pIC50 against human TLR8, at human TLR7 and against human TLR9 were 8.59, 8.70 and 5.79, respectively.

Source of the values: patent US12172995B2, “Substituted indole and indazole compounds” (BRISTOL-MYERS SQUIBB COMPANY, priority 2018, dated 2024).
